This passage reports IC50 results from US10669269B2, “Substituted N-(1H-indazol-4-yl)imidazo[1,2-a]pyridine-3-carboxamide compounds as type III receptor tyrosine kinase inhibitors” (ARRAY BIOPHARMA INC., priority 2010, dated 2020).

Counter-ions that a name gives are not always drawn.

For one experiment, the target named is T1, PDGFR beta (Homo sapiens, UniProt P09619).
T1 construct: endogenous in cells; host or cells: HS27 human fibroblast cell line
Briefly: Phospho PDGFR LICOR Cell Assay (Example B). Type of experiment: cell-based. As to conditions: averaged IC50; PDGFR beta phosphorylation in HS27 human fibroblast cell line, PDGF-BB stimulation 10 minutes, normalized to total ERK. In outline: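 HS27 human fibroblasts pretreated 1 h with compound, then stimulated 10 min with PDGF-BB. Fixed, permeabilized cells immunostained for phospho-PDGFRβ and total ERK and read by two-colour infrared fluorescence, with phospho signal normalized to ERK. IC50 = 50% of control from 4-parameter logistic fit.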

A further experiment deals with T2, cFMS (Homo sapiens, UniProt P07333).
T2 construct: THP-1 cells (human acute monocytic leukemia cell line) were serum-starved for 4 hours; endogenous in cells; host or cells: THP-1 cells (human acute monocytic leukemia cell line)
Nature of the experiment: cFMS Cell-Based Assay (Example C). As to conditions: averaged IC50; phospho-cFMS in THP-1 cells stimulated with 250 ng/mL recombinant human MCSF; read-out: cFMS Cell ELISA IC50. In outline: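 THP-1 cells serum-starved 4 h, then treated 1 h with compound (9-point, 3-fold series, top dose typically 5,000 nM) at 37 °C, then stimulated 1 min with 250 ng/mL recombinant human MCSF. Phospho-cFMS in lysates quantified by capture ELISA against a purified phospho-protein standard curve. IC50 at 50 percent of control, 4-parameter logistic fit.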
A general note: An ELISA detects its analyte on a solid surface through an enzyme-linked reagent.

A further experiment addresses T3, c-KIT (Homo sapiens, UniProt P10721).
T3 construct: M-07e cells (human acute megakaryoblastic leukemia cell line) were serum-starved for 4 hours; endogenous in cells; host or cells: M-07e cells (human acute megakaryoblastic leukemia cell line)
Nature of the experiment: c-KIT Cell-Based Assay (Example D). As to conditions: averaged IC50; phospho-c-KIT in M-07e cells stimulated with 150 ng/ml recombinant human SCF; read-out: cKIT Cell ELISA IC50. In a few lines: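 M-07e cells serum-starved 4 h, treated 1 h with compound (9-point, 3-fold dilutions, top dose typically 5,000 nM) at 37° C, then stimulated 4 min with 150 ng/ml SCF. Phospho-c-KIT in lysates quantified by ELISA against a standard curve; IC50 from 4-parameter logistic fit as 50% of control.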

T1 sequence (P09619 33-1106): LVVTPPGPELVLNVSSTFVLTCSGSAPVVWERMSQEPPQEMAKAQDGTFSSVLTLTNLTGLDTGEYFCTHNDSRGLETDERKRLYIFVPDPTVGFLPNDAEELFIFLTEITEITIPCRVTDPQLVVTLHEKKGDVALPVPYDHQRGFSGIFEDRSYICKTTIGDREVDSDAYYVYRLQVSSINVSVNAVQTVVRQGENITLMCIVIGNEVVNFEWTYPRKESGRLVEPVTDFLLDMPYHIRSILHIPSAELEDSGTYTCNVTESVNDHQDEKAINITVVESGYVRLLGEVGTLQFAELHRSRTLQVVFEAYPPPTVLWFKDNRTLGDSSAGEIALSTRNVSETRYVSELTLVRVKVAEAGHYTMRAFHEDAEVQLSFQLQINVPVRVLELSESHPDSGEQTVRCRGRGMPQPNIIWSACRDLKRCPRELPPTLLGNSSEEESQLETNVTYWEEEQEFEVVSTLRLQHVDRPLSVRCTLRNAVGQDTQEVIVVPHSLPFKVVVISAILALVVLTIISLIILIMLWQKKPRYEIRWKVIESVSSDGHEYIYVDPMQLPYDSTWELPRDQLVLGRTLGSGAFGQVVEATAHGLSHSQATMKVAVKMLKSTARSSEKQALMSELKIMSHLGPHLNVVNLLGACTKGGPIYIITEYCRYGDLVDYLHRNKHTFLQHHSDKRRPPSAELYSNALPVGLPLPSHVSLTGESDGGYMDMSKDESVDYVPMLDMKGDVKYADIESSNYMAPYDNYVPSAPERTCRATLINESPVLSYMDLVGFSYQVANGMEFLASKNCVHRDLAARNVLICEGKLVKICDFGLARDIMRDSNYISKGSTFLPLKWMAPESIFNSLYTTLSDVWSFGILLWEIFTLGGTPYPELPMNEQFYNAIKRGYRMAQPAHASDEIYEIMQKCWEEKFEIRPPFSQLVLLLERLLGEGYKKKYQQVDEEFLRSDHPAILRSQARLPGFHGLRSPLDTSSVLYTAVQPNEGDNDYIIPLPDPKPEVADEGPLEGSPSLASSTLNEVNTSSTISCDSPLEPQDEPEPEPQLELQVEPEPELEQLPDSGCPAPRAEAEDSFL
T3 sequence (P10721 26-976): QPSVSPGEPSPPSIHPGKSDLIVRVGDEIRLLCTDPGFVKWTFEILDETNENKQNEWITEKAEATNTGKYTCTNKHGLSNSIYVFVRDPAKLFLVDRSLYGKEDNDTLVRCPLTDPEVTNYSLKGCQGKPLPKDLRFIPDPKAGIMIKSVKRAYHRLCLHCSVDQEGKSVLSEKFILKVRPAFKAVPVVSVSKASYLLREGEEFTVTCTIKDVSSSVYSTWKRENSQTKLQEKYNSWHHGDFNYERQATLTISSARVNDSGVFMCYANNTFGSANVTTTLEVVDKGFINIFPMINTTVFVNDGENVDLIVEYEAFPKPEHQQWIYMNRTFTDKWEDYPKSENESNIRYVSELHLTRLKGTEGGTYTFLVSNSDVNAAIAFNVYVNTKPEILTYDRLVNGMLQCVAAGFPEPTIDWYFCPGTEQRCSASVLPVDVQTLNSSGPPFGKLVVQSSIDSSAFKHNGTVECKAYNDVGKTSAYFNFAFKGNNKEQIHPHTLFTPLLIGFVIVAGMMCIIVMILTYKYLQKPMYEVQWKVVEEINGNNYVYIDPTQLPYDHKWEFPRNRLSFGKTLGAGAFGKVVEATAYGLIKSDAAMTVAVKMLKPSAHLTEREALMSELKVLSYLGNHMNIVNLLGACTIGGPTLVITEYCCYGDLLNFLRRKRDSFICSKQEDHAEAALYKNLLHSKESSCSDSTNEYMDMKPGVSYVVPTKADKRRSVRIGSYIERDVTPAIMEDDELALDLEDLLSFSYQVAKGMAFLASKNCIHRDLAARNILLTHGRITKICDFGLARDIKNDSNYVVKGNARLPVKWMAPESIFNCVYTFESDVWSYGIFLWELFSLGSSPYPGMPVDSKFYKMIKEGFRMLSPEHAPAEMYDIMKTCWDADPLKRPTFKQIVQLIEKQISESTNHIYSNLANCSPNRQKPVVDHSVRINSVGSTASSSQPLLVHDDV
T2 sequence (P07333 20-972): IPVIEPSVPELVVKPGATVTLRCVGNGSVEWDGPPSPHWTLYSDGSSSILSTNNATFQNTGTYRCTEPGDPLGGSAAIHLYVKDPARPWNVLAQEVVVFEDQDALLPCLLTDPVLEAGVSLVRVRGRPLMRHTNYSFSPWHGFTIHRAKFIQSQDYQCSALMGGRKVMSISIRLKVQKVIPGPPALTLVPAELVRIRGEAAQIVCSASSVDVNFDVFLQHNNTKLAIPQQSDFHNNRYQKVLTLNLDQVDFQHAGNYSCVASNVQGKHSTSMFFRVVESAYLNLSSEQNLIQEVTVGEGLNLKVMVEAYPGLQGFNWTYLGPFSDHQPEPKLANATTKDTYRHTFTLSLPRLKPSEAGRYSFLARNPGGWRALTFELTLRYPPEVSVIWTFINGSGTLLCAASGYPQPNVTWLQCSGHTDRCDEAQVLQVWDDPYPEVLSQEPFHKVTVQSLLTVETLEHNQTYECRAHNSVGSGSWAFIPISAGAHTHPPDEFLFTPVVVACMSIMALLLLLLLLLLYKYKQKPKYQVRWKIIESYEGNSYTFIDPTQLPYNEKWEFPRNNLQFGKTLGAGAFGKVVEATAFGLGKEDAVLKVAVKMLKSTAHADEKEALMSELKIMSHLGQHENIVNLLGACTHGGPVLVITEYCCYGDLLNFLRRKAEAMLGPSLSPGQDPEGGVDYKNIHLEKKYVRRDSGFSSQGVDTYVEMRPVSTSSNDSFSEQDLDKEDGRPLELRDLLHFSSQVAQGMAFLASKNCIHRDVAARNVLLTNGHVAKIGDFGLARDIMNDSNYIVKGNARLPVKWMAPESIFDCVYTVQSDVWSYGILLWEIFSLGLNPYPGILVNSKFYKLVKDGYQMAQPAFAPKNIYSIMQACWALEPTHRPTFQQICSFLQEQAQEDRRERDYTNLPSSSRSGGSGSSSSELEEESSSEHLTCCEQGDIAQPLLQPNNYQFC

In general, IC50 refers to the midpoint of a concentration-inhibition curve. Take `Cc1cccc(Cn2ncc3c(NC(=O)c4cnc5cc(OCCN6CCN(C)CC6)ccn45)cccc32)n1` [Example 150, 7-(2-(4-methylpiperazin-1-yl)ethoxy)-N-(1-((6-methylpyridin-2-yl)methyl)-1H-indazol-4-yl)imidazo[1,2-a]pyridine-3-carboxamide]: the values for the IC50 at PDGFR beta, at cFMS and at c-KIT were 1.7 nM, 4.6 nM and 14.4 nM, respectively.
The matching figures for `Cc1cccc(Cn2nc(C)c3c(NC(=O)c4cnc5cc(OCCN6CCNCC6)ccn45)cccc32)n1` [Example 64, N-(3-methyl-1-((6-methylpyridin-2-yl)methyl)-1H-indazol-4-yl)-7-(2-(piperazin-1-yl)ethoxy)imidazo[1,2-a]pyridine-3-carboxamide]: 94.1 nM, 9.7 nM and 1010 nM.
On to `O=C(Nc1cccc2c1cnn2Cc1ccccc1)c1cnc2ccccn12` [Example 126, N-(1-benzyl-1H-indazol-4-yl)imidazo[1,2-a]pyridine-3-carboxamide], for which the IC50 is 34.5 nM at PDGFR beta, 27.4 nM on cFMS and 22.2 nM at c-KIT.
In the same order, the values of `Cc1cccc(Cn2nc(C)c3c(NC(=O)c4cnc5cc(-c6ccc(=O)n(C)c6)ccn45)cccc32)n1` [Example 65, N-(3-methyl-1-((6-methylpyridin-2-yl)methyl)-1H-indazol-4-yl)-7-(1-methyl-6-oxo-1,6-dihydropyridin-3-yl)imidazo[1,2-a]pyridine-3-carboxamide] are 212 nM, 8.5 nM and 647 nM.
In the same order, the values of `CN1CCN(CCOc2ccn3c(C(=O)Nc4cccc5c4cnn5Cc4cn(C)cn4)cnc3c2)CC1` [Example 106, N-(1-((1-methyl-1H-imidazol-4-yl)methyl)-1H-indazol-4-yl)-7-(2-(4-methylpiperazin-1-yl)ethoxy)imidazo[1,2-a]pyridine-3-carboxamide dihydrochloride] are 558 nM, 159 nM and 748 nM.
In the same order, the values of `COCCOc1ccn2c(C(=O)Nc3cccc4c3cnn4Cc3cccc(C(=O)OC)c3)cnc2c1` [Example 93, Methyl 3-((4-(7-(2-methoxyethoxy)imidazo[1,2-a]pyridine-3-carboxamido)-1H-indazol-1-yl)methyl)benzoate] are 6 nM, 842 nM and 6.4 nM.
For the molecule `COCCOc1ccn2c(C(=O)Nc3cccc4c3cnn4Cc3ccccc3)cnc2c1` [Example 156, N-(1-benzyl-1H-indazol-4-yl)-7-(2-methoxyethoxy)imidazo[1,2-a]pyridine-3-carboxamide], the figures for the IC50 against PDGFR beta, at cFMS and on c-KIT were 5.7 nM, 5.7 nM and 12.5 nM, respectively.
On to `CN1CCN(CCOc2ccn3c(C(=O)Nc4cccc5c4cnn5CCc4ccccn4)cnc3c2)CC1` [Example 107, 7-(2-(4-methylpiperazin-1-yl)ethoxy)-N-(1-(2-(pyridin-2-yl)ethyl)-1H-indazol-4-yl)imidazo[1,2-a]pyridine-3-carboxamide], for which the IC50 against PDGFR beta came out at 158 nM; on cFMS it was 44.8 nM; on c-KIT, 123 nM.
Take `O=C(Nc1cccc2c1cnn2Cc1ccccc1)c1cnc2ccc(C(O)CO)cn12` (stereo not drawn) [Example 158, N-(1-benzyl-1H-indazol-4-yl)-6-(1,2-dihydroxyethyl)imidazo[1,2-a]pyridine-3-carboxamide]: the results for the IC50 against PDGFR beta, on cFMS and at c-KIT were 2400 nM, 535 nM and 2100 nM, respectively.
In the same order, the values of `COCCOc1ccn2c(C(=O)Nc3cccc4c3cnn4CC3CCN(C(=O)OC(C)(C)C)CC3)cnc2c1` [Example 122, tert-butyl 4-((4-(7-(2-methoxyethoxy)imidazo[1,2-a]pyridine-3-carboxamido)-1H-indazol-1-yl)methyl)piperidine-1-carboxylate] are 49.5 nM, 131 nM and 60.9 nM.
In the same order, the values of `Cc1cccc(Cn2nc(C)c3c(NC(=O)c4cnc5cc(OCC(O)CO)ccn45)cccc32)n1` (stereo not drawn) [Example 58, 7-(2,3-dihydroxypropoxy)-N-(3-methyl-1-((6-methylpyridin-2-yl)methyl)-1H-indazol-4-yl)imidazo[1,2-a]pyridine-3-carboxamide] are 915 nM, 21.9 nM and 6870 nM.
Consider `COCCOc1ccn2c(C(=O)Nc3cccc4c3cnn4Cc3cccc(C(N)=O)c3)cnc2c1` [Example 94, N-(1-(3-carbamoylbenzyl)-1H-indazol-4-yl)-7-(2-methoxyethoxy)imidazo[1,2-a]pyridine-3-carboxamide], for which the IC50 at PDGFR beta turned out to be 65 nM; on cFMS, 46.9 nM; at c-KIT, 94.8 nM.
On to `CN1CCN(CCOc2ccn3c(C(=O)Nc4cccc5c4cnn5Cc4cccn(C)c4=O)cnc3c2)CC1` [Example 104, N-(1-((1-methyl-2-oxo-1,2-dihydropyridin-3-yl)methyl)-1H-indazol-4-yl)-7-(2-(4-methylpiperazin-1-yl)ethoxy)imidazo[1,2-a]pyridine-3-carboxamide dihydrochloride], for which the IC50 is 78.4 nM against PDGFR beta, 33.7 nM on cFMS and 398 nM at c-KIT.
In the same order, the values of `Cc1cc(Cn2ncc3c(NC(=O)c4cnc5cc(OCCN6CCN(C)CC6)ccn45)cccc32)nn1C(C)C` [Example 139, N-(1-((1-isopropyl-5-methyl-1H-pyrazol-3-yl)methyl)-1H-indazol-4-yl)-7-(2-(4-methylpiperazin-1-yl)ethoxy)imidazo[1,2-a]pyridine-3-carboxamide] are 1.3 nM, 10.6 nM and 7.9 nM.
The matching figures for `COC(=O)c1cccc(Cn2ncc3c(NC(=O)c4cnc5cc(OCCN6CCN(C)CC6)ccn45)cccc32)c1` [Example 96, Methyl 3-((4-(7-(2-(4-methylpiperazin-1-yl)ethoxy)imidazo[1,2-a]pyridine-3-carboxamido)-1H-indazol-1-yl)methyl)benzoate dihydrochloride]: 14.6 nM, 115 nM and 3.8 nM.
In the same order, the values of `COCCOc1ccn2c(C(=O)Nc3c(Cl)cc(Cl)c4c3cnn4Cc3ccccc3)cnc2c1` [Example 136, N-(1-benzyl-5,7-dichloro-1H-indazol-4-yl)-7-(2-methoxyethoxy)imidazo[1,2-a]pyridine-3-carboxamide] are 1000 nM, 20.7 nM and 54.1 nM.
Consider `Cc1nn(Cc2csc(C(C)C)n2)c2cccc(NC(=O)c3cnc4cc(OCCN5CCN(C)CC5)ccn34)c12` [Example 12, N-(1-((2-isopropylthiazol-4-yl)methyl)-3-methyl-1H-indazol-4-yl)-7-(2-(4-methylpiperazin-1-yl)ethoxy)imidazo[1,2-a]pyridine-3-carboxamide], for which the IC50 against PDGFR beta is 44 nM; on cFMS, 11.4 nM; at c-KIT it was 50.4 nM.
On to `COCCOc1ccn2c(C(=O)Nc3cccc4c3cnn4Cc3cccc(C)c3)cnc2c1` [Example 143, 7-(2-methoxyethoxy)-N-(1-(3-methylbenzyl)-1H-indazol-4-yl)imidazo[1,2-a]pyridine-3-carboxamide], for which the IC50 against PDGFR beta amounted to 12 nM; on cFMS it was 4.8 nM; on c-KIT, 58.9 nM.
Consider `CN1CCN(CCOc2ccn3c(C(=O)Nc4cccc5c4cnn5Cc4cccc(C(F)(F)F)c4)cnc3c2)CC1` [Example 98, 7-(2-(4-methylpiperazin-1-yl)ethoxy)-N-(1-(3-(trifluoromethyl)benzyl)-1H-indazol-4-yl)imidazo[1,2-a]pyridine-3-carboxamide dihydrochloride], for which the IC50 amounted to 5.7 nM against PDGFR beta, 26.3 nM at cFMS and 4.9 nM at c-KIT.
Consider `CCOc1ccn2c(C(=O)Nc3cccc4c3cnn4Cc3ccccc3)cnc2c1` [Example 127, N-(1-benzyl-1H-indazol-4-yl)-7-ethoxyimidazo[1,2-a]pyridine-3-carboxamide], for which the figures for the IC50 against PDGFR beta, on cFMS and at c-KIT were 1.7 nM, 14.9 nM and 67.8 nM, respectively.
`COc1cccc(Cn2nc(C)c3c(NC(=O)c4cnc5cc(OCCN6CCN(C)CC6)ccn45)cccc32)n1` [Example 87, N-(1-((6-methoxypyridin-2-yl)methyl)-3-methyl-1H-indazol-4-yl)-7-(2-(4-methylpiperazin-1-yl)ethoxy)imidazo[1,2-a]pyridine-3-carboxamide]: the results for the IC50 at PDGFR beta, on cFMS and on c-KIT were 77.7 nM, 4.9 nM and 372 nM, respectively.
In the same order, the values of `Cc1nn(Cc2ccn(C(C)C)n2)c2cccc(NC(=O)c3cnc4cc(OCCN5CCN(C)CC5)ccn34)c12` [Example 48, N-(1-((1-isopropyl-1H-pyrazol-3-yl)methyl)-3-methyl-1H-indazol-4-yl)-7-(2-(4-methylpiperazin-1-yl)ethoxy)imidazo[1,2-a]pyridine-3-carboxamide bis hydrochloride] are 47.7 nM, 13.3 nM and 45.1 nM.
